Experimental findings from patent US20040033982A1, “Viral inhibition by n-docosanol” (priority 2001, published 2004) are described below.

Structures are written as SMILES. Like-named read-outs stand apart in the source and are kept apart here.

The subject of assay [1] is HSV. Kind of assay: HSV-induced plaques in Vero versus MDBK cells. Type of assay: cell-based. The source says: Of the counts that are metabolized in two cells lines, the relative amounts in the major classes of phosphatides that are formed, phosphatidylcholine and phosphatidylethanolamine, are not different in the two cell lines.
Assay [2] concerns HSV. As to the kind of experiment: Inhibition of HSV replication, Tetronic versus Pluronic suspension. The assay is classed as cell-based. The source says:
An initial step in conducting such studies involved switching to a different surfactant or suspending n-docosanol. Tetronic 908 is closely related to Pluronic F68; both are block copolymers of ethylene oxide and propylene oxide. However, whereas Pluronic is a bifunctionaI polymer with a molecular weight of 8,400, Tetronic 908 is a tetrfunctional copolymer, produced by adding propylene oxide and ethylene oxide to ethylenediamine and resulting in a molecule with an average molecular weight of 25,000. […] This appears to relate to the 3-fold higher levels of metabolic conversion in cells treated with n-docosanol in Tetronic.

Assay [3] has as its system Friend virus. Kind of assay: Friend virus induced leukemia and viremia in mice. The assay is classed as in vivo, BALB/c mice. Particulars: intravenous, day of virus and once daily for the next 3 days. The procedure: FIG. 12 depicts data showing that n-docosanol inhibits in vivo Friend virus induced leukemia and viremia. Adult BALB/c mice were injected intravenously with 75 spleen focus-forming units of FV. Treated groups were injected intravenously with the indicated doses of n-docosanol or Pluronic vehicle alone on the same day as virus inoculation and once daily for the next 3 days. After 10 days, half of the animals in each group were sacrificed and examined for leukemic foci in their spleens (panel A). The remaining mice were retained 10 more days and bled for viremia determinations (panel B). Viremia was measured using the X-C plaque assay. Briefly, primary fibroblast cultures were derived by digestion of 14-day BALB/c embryos with trypsin and culturing in DMEM plus 10% fetal calf serum. After 72 hours, the cells were transferred into 16-mm dishes (10^5/well), pretreated with 5 μg/ml polybrene and then infected with 75 X-C plaque-forming units of Friend virus stock or dilution of test plasma. After incubation for 7 days, the cultures were irradiated and overlaid with X-C cells (3×10^5/well). Three days later, the cultures were washed, stained, and scored for plaques of multinucleated giant cells. The data presented are geometric means and standard errors of splenic foci or X-C plaque-forming units derived from three animals per group. […]

Assay [4] concerns Friend Virus. As to the kind of experiment: Friend Virus replication in primary embryo fibroblast cultures. The assay is classed as cell-based.
Assay [5] concerns HSV-2 (333). As to the kind of experiment: Entry of HSV-2 (333) into CHO-IEβ8 cells (beta-galactosidase, OD600). Type of assay: cell-based. As to conditions: for inhibition at 30000 µM: Human alphaherpesvirus 2, 30 mM. The procedure:
CHO-IEβ8 cells were seeded into 24-well plates. After cell attachment, heparin, n-docosanol-vehicle, vehicle alone, or no agent (control) was added. Five to six hours after infection, the cells were processed, X-gal was added, and the absorbance at 600 nm was determined.
Twenty-four hours before infection, cultured cells were seeded into 24-well (16-mm) plates at 2.5×10^6 cells/well in 0.5 ml cDMEM supplemented with 10% fetal bovine serum (FES). After cell attachment (4-6 h later) heparin, n-docosanol-surfactant, or surfactant alone was added to the cells in 0.5 ml DMEM/10% FES. The agents were dissolved in the medium at two times the desired final concentration. For infection, 0.7 ml of medium was removed from each well and 25 μl of virus suspension was added to the remaining 0.3 ml to give a virus dose of at least 20 p.f.u./cell The plates were rocked at 37° C. for 3 h and then put in a 37° C. CO2 incubator for another 2-3 h.
At 5-6 h after infection, the cells were fixed with PES containing 2% formaldehyde and 0.2% glutaraldehyde, washed, then permeabilized with 0.02% NP-40, 0.01% deoxycholate and 2 mM MgCl2. After washing again, 5-bromo-4-chloro-3indolyl-β-galactopyranoside (X-gal) was added for development of blue product. The substrate was removed and replaced with 50% glycerol. Plates were photographed. To quantify the amount of color in each well the glycerol was removed from all wells that were then washed 3× with distilled H2O. DMSO (0.6 ml) was added to solubilize the dye and, after transferring 100 μl of each sample well from the 24-well plate to a 96-well plate, the OD600 was recorded using a 96-well plate reader.
n-Docosanol inhibits HSV-2(333) infectivity of CHO-IEβ8 cells. To further narrow the point of inhibition of viral entry in n-docosanol-treated cells, the effects of the drug on entry of HSV-2 into CHO-IEβ8 cells selected by transfection of CHO cells with a plasmid carrying a Pur selectable marker and lacZ under control of the HSV-1 ICP4 promoter was investigated. In this cell line, β-gal expression is induced upon entry of HSV virion proteins into the cell, an event which occurs immediately upon viral entry into the cellular cytoplasm and which is not dependent on virion transport to the nucleus.

The term inhibition denotes the drop in the measured response relative to a control, in per cent.

With `CCCCCCCCCCCCCCCCCCCCCCO` [n-docosanol], in assay [1], the “effectiveness in inhibiting HSV-induced plaques, Vero versus MDBK cells” value was 3-4 fold. In addition, the “ED50 for inhibition of HSV replication relative to Tetronic” value in assay [2] (suspended in Pluronic) was “approximately 3 times higher”. Moreover, in assay [2] (suspended in Tetronic), the “ED50 for inhibition of HSV replication” value was 5 to 10 mM. In addition, the “development of leukemic foci in spleens” value in assay [3] (day 10) is reported as “very clear dose-related inhibitory affect”. Besides, the development of viremia result in assay [3] (day 20) is given as “very clear dose-related inhibitory affect”. For the same compound, the “activity against replication of Friend Virus” value in assay [4] is listed as “very potent activity”. Besides, the “maximal observed inhibition in comparison to untreated cells” value in assay [5] was “approximately 75%”. In assay [5], the “reduction in the expression of β-galactosidase” value is no more than 80%. For the same compound, the figures for the inhibition at 30000 µM in assay [5] (read-out: inhibition of color production compared to Tetronic 908-treated cells) and in assay [5] (read-out: inhibition of color production compared to untreated cells) were 55% and 40%, respectively.
